For experiment [1], the system named is PBMC derived DCs. Put plainly: Array (transcriptomics) on PBMC derived DCs. Format: cell-based, human. Also on record: SLC39A14 gene expression / IL6 gene expression / CCL1 gene expression / CCL8 gene expression / TNF-α gene expression: unit not given here. Particulars: 3 donors, 6h, TNF-α 10 ng/ml, PHA 3 μg/ml, LPS 3 ng/ml, PAM3CSK4 10 ng/ml, MDP 5 μg/ml. Here is the method: DCs from three different donors were seeded at 1.0×10^5 DCs/well in a 48 well plate in 0.5 ml of complete IMDM. The effect of the active fractions of the F4 clone was compared to the same fractions purified from the negative control (pBAD-fractions). TNF-α (10 ng/ml), PHA (3 μg/ml), LPS (3 ng/ml), PAM3CSK4 (10 ng/ml), and MDP 5 μg/ml were used as control.
Data were generated and analyzed using Spotfire software.
Transcriptomics was carried out on PBMC derived DCs from 3 donors.
DCs were stimulated (6h) with: • TNFα, PHA, LPS, PAM3CSK4, MDP=Positive control • F13, F25=HPLC fractions obtained from the complemented and functional F4D5-MsbA1-A2 clone • F4D5-pBAD-F13, F4D5-pBAD-F25=HPLC fractions obtained from the F4D5-pBADclone (negative control)
Data analysis was realised using TIBCO Spotfire software. The F4 fractions (from both positive and negative clones) were analysed individually and compared to known agonists (TNFα, PHA, LPS, PAM3CSK4, MDP).

Experiment [2] relates to Monocyte-derived Dendritic Cells. The experiment in a line: AlphaLISA IL10 secretion by dendritic cells. Format: cell-based, human. Particulars: for IL-10 secretion from DCs in co-stimulation with TLR activators: LPS 100 ng/ml or FIMH 10 μg/ml, mean of 3 MoDC donors, FIG. 9. Here is the method:
Dendritic Cells (DCs) were prepared from PBMC (Buffy Coat) and differentiated with GM-CSF (D 1:10000; =5 μl/50 ml) and IL-4 (D 1:5000; =10 μl/50 ml).
In this test, 30,000 cells/well were seeded in complete IMDM media (2 mM L-glutamine, 50 IU/mL penicillin, […] streptomycin, 10 mM Hepes and 10% heat-inactivated foetal calf serum) in 96 wells plates 24h before activation (and kept in a humidified 5% CO2 atmosphere at 37° C.). Pre-purified, or HPLC-eluted, fractions as well as EB7020 chemically synthetized and various controls were added to reporter cells at 10% vol/vol to a final volume of 100 μl.
AlphaLisa (Perkin Elmer) was realized on supernatant according the supplier protocol (for complete references: AlphaLISA® Research Reagents Human Interleukin 10 (IL10) Kit Product No.: AL218 C/F sold by PerkinElmer).
(In Alpha technology, singlet oxygen from a donor bead excites a nearby acceptor bead.)

Consider six compounds from US20230257423A1, “COMPOSITIONS FOR TREATING EPITHELIAL BARRIER FUNCTION DISORDERS” (ENTEROME, priority 2020, published 2023).

In experiment [1], `CC(=O)N[C@@H]1[C@@H](O[C@H](C)C(=O)N[C@@H](C)C(=O)N[C@H](CCC(=O)O)C(N)=O)[C@H](O)[C@@H](CO)O[C@H]1O` [MDP] returned a CCL1 gene expression of 3.1, a CCL8 gene expression of 4.1, an IL6 gene expression of 9.4 and a PERP gene expression of 1.6. Also, in experiment [1], the PMP22 gene expression came to 1.0, the SLC39A14 gene expression is 0.9 and the TNF-α gene expression is given as 3.5.
In experiment [1], TNF-α gave a CCL1 gene expression of 4.2, a CCL8 gene expression of 11.2, an IL6 gene expression of 32.9 and a PERP gene expression of 1.0. In experiment [1], the PMP22 gene expression came out at 0.8, the SLC39A14 gene expression is recorded as 1.2 and the TNF-α gene expression is given as 5.6.
As to `CC(=O)NC1C(OP(=O)(O)O)OC(CO)C(O)C1OC(C)C(=O)NC(C)C(=O)NC(CCC(=O)NC(CCCC(N)C(=O)O)C(=O)O)C(=O)O` (stereo not shown) [EB7020, M-Tri-DAP monophosphate], in experiment [2], the “IL-10 secretion from DCs in co-stimulation with TLR activators” value was “Synergy”. Moreover, in experiment [2] (chemically synthesized compound, in presence of LPS, FIG. 8), the “IL-10 secretion from human DCs” value was “IL-10 secretion is induced”.
In experiment [1], PAM3CSK4 returned a CCL1 gene expression of 30.6, a CCL8 gene expression of 64.8, an IL6 gene expression of 718.1 and a PERP gene expression of 2.6. In experiment [1], the PMP22 gene expression is listed as 1.0, the SLC39A14 gene expression is on record as 1.6 and the TNF-α gene expression is recorded as 28.4.
For the compound `CC(=O)NC1C(OP(=O)(O)OP(=O)(O)OC[C@H]2O[C@@H](n3ccc(=O)[nH]c3=O)C(O)C2O)OC(CO)C(O)C1OC(C)C(=O)NC(C)C(=O)NC(CCC(=O)NC(CCCC(N)C(=O)O)C(=O)NC(C)C(=O)O)C(=O)O` (stereo partly shown) [EB7022, UDP-M-Tetrapeptide], the “IL-10 secretion from DCs in co-stimulation with TLR activators” value in experiment [2] is given as “Synergy”.
Still for that read-out and setting: the result for `CC(=O)N[C@H]1[C@@H](OP(=O)(O)OP(=O)(O)OC[C@H]2O[C@@H](n3ccc(=O)[nH]c3=O)[C@H](O)[C@@H]2O)O[C@H](CO)[C@@H](O)[C@@H]1O[C@H](C)C(=O)N[C@@H](C)C(=O)N[C@H](CCC(=O)N[C@@H](CCC[C@@H](N)C(=O)O)C(=O)O)C(=O)O` [EB7021, UDP-M-Tri-DAP] reads “Synergy”.
